The values below come from patent US11452702B2, “Compositions comprising amino acids for use in the treatment of mitochondrial dysfunction-related diseases” (PROFESSIONAL DIETETICS INTERNATIONAL S.R.L., priority 2017, dated 2022).

SMILES strings stand for the structures.

This assay relates to HL-1 cardiomyocytes. Briefly: Oxygen consumption (Clark-type oxygen electrode) in HL-1 cardiomyocytes. Type of assay: cell-based, Mus musculus. The following applies: HL-1 cells, 48 hr treatment, normalized to protein content; FIG. 5. Here is the method: Oxygen consumption in HL-1 cardiomyocytes treated with amino acid based compositions or DETA-NO for 48 hr. ****p<0.001 vs. untreated cell; ####p<0.001 vs. BCAAem and B2.
An amount of 1 ml of HL-1 cardiomyocytes treated with the compositions shown in Table 1 was re-suspended in Hank's balanced salt solution (Sigma) and spun down to pellet cells. A number of HL-1 cells was also supplemented with a nitic oxide (NO) donor, specifically with diethylenetriamine-NO also called DETA-NO (Sigma-Aldrich, Milan, Italy), as positive control.
Then, cells were re-suspended in a respiration buffer (0.3 M mannitol, 10 mM KCl, 5 mM MgCl2, 10 mM K2PO4, pH 7.4) at a density of 3.0×10^6/ml.
Samples were analyzed at 37° C. in a gas-tight vessel equipped with a Clark-type oxygen electrode (Rank Brothers Ltd.) connected to a chart recorder.
The oxygen electrode was calibrated assuming the concentration of oxygen in the incubation medium as 200 μmol/l at 37° C.
Oxygen consumption was assessed with continuous mixing for about ten minutes. The slope of the trace recorder was then used to calculate oxygen consumption. Oxygen content may vary depending on the amount of cells. Thus, protein content, which directly correlates with cell content, has been used to normalize the oxygen consumption in cell samples. Protein content was determined by using the bicinchoninic acid protein (BCA) assay.

For `NCCN(CCN)/[N+]([O-])=N/O` [DETA-NO, diethylenetriamine-NO], the oxygen consumption result is “rise”.
